Assay results published in publication PMC10895678 (Journal of Medicinal Chemistry, 2024).

System: HepG2 cells
Assay: HepG2 mitochondrial dysfunction (Glu/Gal cytotoxicity, MTT)
Format: cell-based
Conditions: glucose medium
Description: Compounds were solubilized to 30 mM in DMSO. The BGAz compounds were added to the HepG2 cell model in a 96-well microplate in half log dilutions from 100–0.0003 μM (final DMSO concentration 0.3%) using both glucose (DMEM consisting of 25 mM glucose) and galactose (DMEM consisting of 10 mM galactose) media. The compounds were incubated with the cell line for 24 h at 37 °C in a humidified CO2 tissue culture incubator, followed by cell viability staining with MTT (3-(4,5-dimethylthiazol-2-yl)-2.5-diphenyltetrazolium bromide) conversion to the Formazan product, determined by absorbance measurement. The cell viability IC50 was determined in HepG2 glucose and metabolism-modified HepG2 galactose, and the fold change difference between the Glu/Gal IC50 was determined. All experiments were performed in duplicate with the mitochondrial toxicity controls rotenone and Antimycin A and the cytotoxin control tamoxifen.

## Brc1cc(Br)cc(C2CC(CN3CCCC3)N2Cc2ccccc2Br)c1 (stereo not shown) [BGAz-004]
  HepG2 cytotoxicity (in words): negligible effect
